Tests used:
[1] = test system: CTLA4 expression in iTreg (CD4+CD25+Foxp3+) cells; assay: CTLA4 assay in induced regulatory T cells; format: cell-based, C57BL/6 mouse; settings: 6 days incubation
From the text: In order to evaluate the effect of the compounds of the present invention on the expression of CTLA4, FOXP3+ induced regulatory T cells were induced from effector T cells (CD4+CD25−) isolated from the spleen of C57BL/6 mouse. Specifically, 6-week-old C57BL/6 mouse were purchased, and spleens were isolated therefrom, and separated into single cells by treatment with collagenase D. Effector T cells (CD4+CD25−, Teff) were separated from the mouse spleen cells using a CD4+CD25 regulatory T cell isolation kit (Miltenyi Biotec). Teff were plated on a 48-well plate at a density of 5×10^5 cells/well, and activated by adding a […] mAb-conjugated magnetic bead (T cell Activation/Expansion kit, Miltenyi Biotec) thereto. The activated cells were treated with TGF-β2 and each compound, and after 6 days, the cells were subjected to cell surface staining with CD4-PECy7 and CD25-APC (eBioscience) and to intracellular staining with FOXP3-Alexafluor488 and CTLA4-PE (eBioscience). Then, a change in the expression of CTLA4 in the induced regulatory T cells (iTreg) was analyzed by FACS Canto II (BD bioscience).

[2] = test system: proliferation of effector T cells (Teff) co-cultured with Treg; assay: Regulatory T cell suppression function, Treg/Teff co-culture; format: cell-based, C57BL/6 mouse; settings: Teff:Treg 2:1 co-culture, 3 days; vehicle group 27% suppression
Procedure: The effect of compound 636 on the proliferation of effector T cells in the co-culture condition of the regulatory T cells (Treg) and effector T cells (Teff) isolated from the spleen of C57BL/6 mouse was evaluated.
Specifically, 6-week-old C57BL/6 mouse were purchased, and spleens were isolated therefrom, and separated into single cells by treatment with collagenase D. Teff (CD4^+CD25^−) and Treg (CD4^+CD25^high) were isolated from the mouse spleen cells using a CD4^+CD25^high regulatory T cell isolation kit (Miltenyi Biotec). The Teff were stained with 5 μM Cell Proliferation Dye eFluor® 670 (eBioscience) at 37° C. under a light-shielded condition for 10 minutes, and incubated in cold complete media on ice for 5 minutes to stop the staining reaction, and then washed three times with complete media. The eFluor-stained effector T cells and the Treg were co-cultured on a U-bottom plate at a ratio of 2:1, and activated by adding a CD3εCD28 mAb-conjugated magnetic bead (T cell Activation/Expansion kit, Miltenyi Biotec) thereto. The activated cells were treated with compound 636, and after 3 days, the proliferation of the Teff was evaluated by analyzing the dilution pattern of eFluor® 670 with FACS Canto II (BD bioscience).

[3] = test system: tubulin acetylation (HDAC6) in RPMI8226 cells; assay: Western blot analysis of tubulin acetylation in cells; format: cell-based; settings: 24 hours, Western blot (FIG. 1)
Procedure: Specifically, RPMI8226 cells were seeded into a six-well plate at a density of 1.0×10^6 cells/well, and then treated with varying concentrations of each of compounds 636 and 642. After 24 hours, protein was extracted from the cells using RIPA buffer and quantified by the Bradford method. 25 μg of the protein was dissolved to sample buffer and electrophoresed on 4-12% gradient gel, and the gel was transferred to a nitrocellulose membrane for 50 minutes. The membrane was blocked in 5% skim milk solution for 1 hour. Anti-acetyl H3 antibody (1:2,000), anti-acetyl H4 antibody (1:5,000), anti-acetyl tubulin antibody (1:5,000) and anti-β-actin antibody (1:10,000) were added to 5% skim milk, and the membrane was immersed in the skim milk and allowed to react at 4° C. for 16 hours, after which it was washed three times with 1×TBS-T for 10 minutes each washing. IgG-HRP antibody (1:5,000) was added to 5% skim milk, and the membrane was immersed in the skim milk and allowed to react at room temperature for 40 minutes, after which it was washed three times with 1×TBS-T for 10 minutes each washing. Detection was performed by LAS 3000 using ECL solution.

[4] = target: T1, HDAC6 human recombinant (Homo sapiens, UniProt Q9UBN7); assay: Inhibition of HDAC6 activity (fluorimetric assay); format: biochemical; settings: test concentrations 0.1, 1, 10, 100 and 1000 nM; 37° C., 60 minutes
T1 construct: purchased Calbiochem 382180
T1 sequence (Q9UBN7 1-1215): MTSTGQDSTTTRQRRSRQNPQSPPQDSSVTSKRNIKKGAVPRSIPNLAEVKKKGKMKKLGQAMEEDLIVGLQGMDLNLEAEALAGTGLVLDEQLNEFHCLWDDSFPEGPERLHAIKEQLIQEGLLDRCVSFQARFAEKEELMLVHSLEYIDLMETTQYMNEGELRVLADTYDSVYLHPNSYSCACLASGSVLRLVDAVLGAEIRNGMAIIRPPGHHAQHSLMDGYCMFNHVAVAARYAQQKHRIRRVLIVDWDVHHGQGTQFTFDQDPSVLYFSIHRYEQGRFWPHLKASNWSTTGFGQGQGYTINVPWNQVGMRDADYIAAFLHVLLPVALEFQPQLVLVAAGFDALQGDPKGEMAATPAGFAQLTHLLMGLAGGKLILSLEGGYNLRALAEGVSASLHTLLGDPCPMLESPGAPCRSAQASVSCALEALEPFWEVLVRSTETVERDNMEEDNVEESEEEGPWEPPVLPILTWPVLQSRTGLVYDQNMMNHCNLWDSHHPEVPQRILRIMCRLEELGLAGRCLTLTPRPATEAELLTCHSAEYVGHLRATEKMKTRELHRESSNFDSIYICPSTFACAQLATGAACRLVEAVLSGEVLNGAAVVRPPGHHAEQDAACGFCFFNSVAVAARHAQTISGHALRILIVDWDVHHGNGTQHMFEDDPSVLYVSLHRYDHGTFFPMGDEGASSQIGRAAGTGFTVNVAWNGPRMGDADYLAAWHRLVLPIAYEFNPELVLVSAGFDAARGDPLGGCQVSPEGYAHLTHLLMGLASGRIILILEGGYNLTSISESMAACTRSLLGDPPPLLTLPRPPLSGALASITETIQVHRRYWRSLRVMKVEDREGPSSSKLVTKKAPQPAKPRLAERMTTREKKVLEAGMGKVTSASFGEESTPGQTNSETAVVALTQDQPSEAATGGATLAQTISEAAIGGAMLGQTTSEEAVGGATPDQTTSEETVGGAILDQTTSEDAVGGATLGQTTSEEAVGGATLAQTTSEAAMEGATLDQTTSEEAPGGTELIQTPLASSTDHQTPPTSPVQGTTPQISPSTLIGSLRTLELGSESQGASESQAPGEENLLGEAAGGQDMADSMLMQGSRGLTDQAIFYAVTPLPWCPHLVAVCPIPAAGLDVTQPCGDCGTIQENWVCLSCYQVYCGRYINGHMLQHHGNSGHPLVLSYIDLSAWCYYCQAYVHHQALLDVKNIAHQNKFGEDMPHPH
Summary of the method: (§1)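 HDAC1 tested with the kit assay mixture at 100, 1000 and 10000 nM compound; recombinant human HDAC6 at 0.1, 1, 10, 100 and 1000 nM. Reaction ran 60 min at 37° C, then developer was added for 30 min at 37° C and fluorescence quantified.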

[5] = test system: effector T cells (Teff); assay: Viability (death) of Teff cells; format: cell-based, C57BL/6 mouse; settings: treated for 24 hours
[6] = target: T2, HDAC1 (Homo sapiens, UniProt Q13547); assay: Inhibition of HDAC1 activity (HDAC1 fluorimetric drug discovery assay kit); format: biochemical; settings: test concentrations 100, 1000 and 10000 nM; 37° C., 60 minutes
T2 construct: purchased Enzolifesciences BML-AK511
T2 sequence (Q13547 whole entry): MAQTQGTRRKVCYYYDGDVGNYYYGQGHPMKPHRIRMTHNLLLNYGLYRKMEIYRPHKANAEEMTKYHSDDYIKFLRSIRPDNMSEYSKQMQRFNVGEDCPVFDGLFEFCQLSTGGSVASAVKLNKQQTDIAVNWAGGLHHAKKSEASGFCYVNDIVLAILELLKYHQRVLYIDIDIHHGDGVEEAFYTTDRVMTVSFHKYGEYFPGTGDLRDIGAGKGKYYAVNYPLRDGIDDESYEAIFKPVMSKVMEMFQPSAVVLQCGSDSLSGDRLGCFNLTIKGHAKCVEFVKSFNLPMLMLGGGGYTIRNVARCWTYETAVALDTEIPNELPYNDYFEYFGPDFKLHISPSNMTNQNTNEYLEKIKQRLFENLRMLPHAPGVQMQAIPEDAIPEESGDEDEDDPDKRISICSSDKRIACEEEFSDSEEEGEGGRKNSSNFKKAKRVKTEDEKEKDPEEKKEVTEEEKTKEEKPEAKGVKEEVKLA
Summary of the method: as §1

SMILES | increase of the expression of CTLA4 in the iTreg (CD4+CD25+Foxp3+) population ([1]; concentrations of 100 and 500 nM) | suppression ratio of Teff relative to the vehicle group [2] [times] | compound concentration at which tubulin acetylation (HDAC6) appeared [3] | IC50 [4] [nM] | viability of the Teff versus non-drug-treated group [5] | IC50 [6] [nM] | increase of the expression of CTLA4 in the iTreg cells ([1]; concentration not stated separately) [times]
CC(C)(F)CN1CCC(c2ccnc3c2ccn3Cc2ccc(C(=O)NO)cc2)CC1 [Compound 636, 4-((4-(1-(2-fluoro-2-methylpropyl)piperidin-4-yl)-1H-pyrrolo[2,3-b]pyridin-1-yl)methyl)-N-hydroxybenzamide] | 1.5-2 times | 2 | about 300 nM | 8 | did not differ | 930 | –
CC(C)(F)CN1CCN(c2ccnc3c2ccn3Cc2ccc(C(=O)NO)cc2)CC1 [Compound 642, 4-((4-(4-(2-fluoro-2-methylpropyl)piperazin-1-yl)-1H-pyrrolo[2,3-b]pyridin-1-yl)methyl)-N-hydroxybenzamide] | – | – | about 300 nM | 9 | – | 4310 | ≥ 2
